Measured values: publication PMC12221116, “Novel Quinazolinones Active against Multidrug‐Resistant Mycobacterium Tuberculosis: Synthesis, Antimicrobial Evaluation, and in Silico Exploration of Penicillin‐Binding Protein 1A as a Potential Target” (Chemmedchem, 2025)
≈ marks a conversion by molar mass, not a printed value. Where two headings read alike, the source gives them in different places.

How the values were obtained:
Assay in all cases: microbe, parasite or virus in culture
Format in all cases: cell-based, Mycobacterium tuberculosis
Mtb IZAK [1] = conditions: for MIC: Mycobacterium tuberculosis, read-out: MIC Mtb IZAK
Mtb TIAS [2] = conditions: for MIC: Mycobacterium tuberculosis, read-out: MIC Mtb TIAS
Mtb TURZ [3] = conditions: for MIC: Mycobacterium tuberculosis, read-out: MIC Mtb TURZ
Mtb YAGY [4] = conditions: for MIC: Mycobacterium tuberculosis, read-out: MIC Mtb YAGY
Mtb MATI [5] = conditions: for MIC: Mycobacterium tuberculosis, read-out: MIC Mtb MATI
Mtb SORO [6] = conditions: for MIC: Mycobacterium tuberculosis, read-out: MIC Mtb SORO
Mtb SORO [7] = conditions: for Susceptible/resistant Mtb SORO: CLSI methodology; for MIC: Mycobacterium tuberculosis, read-out: MIC, susceptibility pattern Mtb SORO
Mtb IZAK [8] = conditions: for Susceptible/resistant Mtb IZAK: CLSI methodology; for MIC: Mycobacterium tuberculosis, read-out: MIC, susceptibility pattern Mtb IZAK
Mtb TIAS [9] = conditions: for Susceptible/resistant Mtb TIAS: CLSI methodology; for MIC: Mycobacterium tuberculosis, read-out: MIC, susceptibility pattern Mtb TIAS
Mtb TURZ [10] = conditions: for Susceptible/resistant Mtb TURZ: CLSI methodology; for MIC: Mycobacterium tuberculosis, read-out: MIC, susceptibility pattern Mtb TURZ
Mtb YAGY [11] = conditions: for Susceptible/resistant Mtb YAGY: CLSI methodology; for MIC: Mycobacterium tuberculosis, read-out: MIC, susceptibility pattern Mtb YAGY
Mtb MATI [12] = conditions: for Susceptible/resistant Mtb MATI: CLSI methodology; for MIC: Mycobacterium tuberculosis, read-out: MIC, susceptibility pattern Mtb MATI
[13] = drug-resistant clinical isolate
[14] = mycobacteria growth indicator tube (MGIT), concentration 100 mg/l

Compound: Cc1nc2ccccc2c(=O)n1Cc1cccc(Cl)c1 [Compound 6]
- MIC Mtb IZAK (Mtb IZAK [1]; [13]): >100 µg/mL
- MIC Mtb TIAS (Mtb TIAS [2]; [13]): 25 µg/mL (≈ 87.8 µM)
- MIC Mtb TURZ (Mtb TURZ [3]; [13]): 25 µg/mL (≈ 87.8 µM)
- MIC Mtb YAGY (Mtb YAGY [4]; [13]): 12.5 µg/mL (≈ 43.9 µM)
- MIC Mtb MATI (Mtb MATI [5]; [13]): 50 µg/mL (≈ 176 µM)
- MIC Mtb SORO (Mtb SORO [6]; [13]): 25 µg/mL (≈ 87.8 µM)

Compound: COc1ccc(Cn2c(C)nc3cc(Cl)ccc3c2=O)cc1 [Compound 17]
- MIC (Mtb IZAK [1]): 12.5 µg/mL (≈ 39.7 µM)
- MIC (Mtb TIAS [2]): 12.5 µg/mL (≈ 39.7 µM)
- MIC (Mtb TURZ [3]): 12.5 µg/mL (≈ 39.7 µM)
- MIC (Mtb YAGY [4]): 12.5 µg/mL (≈ 39.7 µM)
- MIC (Mtb MATI [5]): 12.5 µg/mL (≈ 39.7 µM)
- MIC (Mtb SORO [6]): 12.5 µg/mL (≈ 39.7 µM)

Compound: Cc1nc2cc(Cl)ccc2c(=O)n1Cc1ccc(F)cc1 [Compound 19]
- MIC (Mtb IZAK [1]): > 50 µg/mL
- MIC (Mtb TIAS [2]): 12.5 µg/mL (≈ 41.3 µM)
- MIC (Mtb TURZ [3]): 12.5 µg/mL (≈ 41.3 µM)
- MIC (Mtb YAGY [4]): 12.5 µg/mL (≈ 41.3 µM)
- MIC (Mtb MATI [5]): > 50 µg/mL
- MIC (Mtb SORO [6]): > 50 µg/mL

Compound: Cc1nc2cc(Cl)ccc2c(=O)n1Cc1cccc(Cl)c1 [Compound 21]
- MIC (Mtb IZAK [1]): > 100 µg/mL
- MIC (Mtb TIAS [2]): 12.5 µg/mL (≈ 39.2 µM)
- MIC (Mtb TURZ [3]): 12.5 µg/mL (≈ 39.2 µM)
- MIC (Mtb YAGY [4]): 12.5 µg/mL (≈ 39.2 µM)
- MIC (Mtb MATI [5]): > 100 µg/mL
- MIC (Mtb SORO [6]): > 100 µg/mL

Compound: Cc1nc2cc(Cl)ccc2c(=O)n1Cc1ccc(Cl)c(Cl)c1 [Compound 24]
- MIC (Mtb IZAK [1]): > 100 µg/mL
- MIC (Mtb TIAS [2]): 6.25 µg/mL (≈ 17.7 µM)
- MIC (Mtb TURZ [3]): 6.25 µg/mL (≈ 17.7 µM)
- MIC (Mtb YAGY [4]): 6.25 µg/mL (≈ 17.7 µM)
- MIC (Mtb MATI [5]): > 100 µg/mL
- MIC (Mtb SORO [6]): 100 µg/mL (≈ 283 µM)

Compound: Cc1nc2cc(Cl)ccc2c(=O)n1/N=C/c1ccc(O)c([N+](=O)[O-])c1 [Compound 25]
- MIC (Mtb IZAK [1]): > 25 µg/mL
- MIC (Mtb TIAS [2]): 25 µg/mL (≈ 69.7 µM)
- MIC (Mtb TURZ [3]): 25 µg/mL (≈ 69.7 µM)
- MIC (Mtb YAGY [4]): 6.25 µg/mL (≈ 17.4 µM)
- MIC (Mtb MATI [5]): 12.5 µg/mL (≈ 34.8 µM)
- MIC (Mtb SORO [6]): 12.5 µg/mL (≈ 34.8 µM)

Compound: NNC(=O)c1ccncc1 [INH, isoniazid, reference compound]
- MIC (Mtb IZAK [1]): > 100 µg/mL
- MIC (Mtb TIAS [2]): > 100 µg/mL
- MIC (Mtb TURZ [3]): > 100 µg/mL
- Susceptible/resistant Mtb SORO (Mtb SORO [7]): R
- MIC (Mtb SORO [7]): 4 µg/mL (≈ 29.2 µM)
- MIC (Mtb YAGY [4]): > 100 µg/mL
- MIC (Mtb MATI [5]): > 100 µg/mL
- Susceptible/resistant Mtb IZAK (Mtb IZAK [8]): R
- MIC (Mtb IZAK [8]): 4 µg/mL (≈ 29.2 µM)
- Susceptible/resistant Mtb TIAS (Mtb TIAS [9]): R
- MIC (Mtb TIAS [9]): > 8 µg/mL
- Susceptible/resistant Mtb TURZ (Mtb TURZ [10]): R
- MIC (Mtb TURZ [10]): > 8 µg/mL
- Susceptible/resistant Mtb YAGY (Mtb YAGY [11]): R
- MIC (Mtb YAGY [11]): 4 µg/mL (≈ 29.2 µM)
- MIC (Mtb SORO [6]): > 100 µg/mL
- Susceptible/resistant Mtb MATI (Mtb MATI [12]): R
- MIC (Mtb MATI [12]): > 8 µg/mL

Compound: CO[C@H]1/C=C/O[C@@]2(C)Oc3c(C)c(O)c4c(O)c(c(/C=N/N5CCN(C)CC5)c(O)c4c3C2=O)NC(=O)/C(C)=C\C=C\[C@H](C)[C@H](O)[C@@H](C)[C@@H](O)[C@@H](C)[C@H](OC(C)=O)[C@@H]1C [RIF, rifampicin]
- Susceptible/resistant Mtb SORO (Mtb SORO [7]): S
- MIC (Mtb SORO [7]): 0.125 µg/mL (≈ 0.152 µM)
- Susceptible/resistant Mtb IZAK (Mtb IZAK [8]): R
- MIC (Mtb IZAK [8]): > 8 µg/mL
- Susceptible/resistant Mtb TIAS (Mtb TIAS [9]): S
- MIC (Mtb TIAS [9]): 0.125 µg/mL (≈ 0.152 µM)
- Susceptible/resistant Mtb TURZ (Mtb TURZ [10]): R
- MIC (Mtb TURZ [10]): > 8 µg/mL
- Susceptible/resistant Mtb YAGY (Mtb YAGY [11]): R
- MIC (Mtb YAGY [11]): 8 µg/mL (≈ 9.72 µM)
- Susceptible/resistant Mtb MATI (Mtb MATI [12]): R
- MIC (Mtb MATI [12]): > 8 µg/mL

Compound: NCC[C@H](O)C(=O)N[C@@H]1C[C@H](N)[C@@H](O[C@H]2O[C@H](CN)[C@@H](O)[C@H](O)[C@H]2O)[C@H](O)[C@H]1O[C@H]1O[C@H](CO)[C@@H](O)[C@H](N)[C@H]1O [amikacin]
- Susceptible/resistant Mtb SORO (Mtb SORO [7]): S
- MIC (Mtb SORO [7]): 1 µg/mL (≈ 1.71 µM)
- Susceptible/resistant Mtb TIAS (Mtb TIAS [9]): S
- MIC (Mtb TIAS [9]): 1 µg/mL (≈ 1.71 µM)
- Susceptible/resistant Mtb TURZ (Mtb TURZ [10]): S
- MIC (Mtb TURZ [10]): 0.5 µg/mL (≈ 0.854 µM)
- Susceptible/resistant Mtb YAGY (Mtb YAGY [11]): R
- MIC (Mtb YAGY [11]): > 64 µg/mL

Compound: CC(C)/N=c1\cc2n(-c3ccc(Cl)cc3)c3ccccc3nc-2cc1Nc1ccc(Cl)cc1 [clofazimine]
- Susceptible/resistant Mtb SORO (Mtb SORO [7]): S
- MIC (Mtb SORO [7]): 0.25 µg/mL (≈ 0.528 µM)

Compound: CC[C@@H](CO)NCCN[C@@H](CC)CO [ethambutol]
- Susceptible/resistant Mtb SORO (Mtb SORO [7]): R
- MIC (Mtb SORO [7]): 2 µg/mL (≈ 9.79 µM)
- Susceptible/resistant Mtb IZAK (Mtb IZAK [8]): S
- MIC (Mtb IZAK [8]): 0.5 µg/mL (≈ 2.45 µM)
- Susceptible/resistant Mtb TIAS (Mtb TIAS [9]): R
- MIC (Mtb TIAS [9]): 1 µg/mL (≈ 4.89 µM)
- Susceptible/resistant Mtb TURZ (Mtb TURZ [10]): R
- MIC (Mtb TURZ [10]): 1 µg/mL (≈ 4.89 µM)
- Susceptible/resistant Mtb YAGY (Mtb YAGY [11]): R
- MIC (Mtb YAGY [11]): 4 µg/mL (≈ 19.6 µM)
- Susceptible/resistant Mtb MATI (Mtb MATI [12]): S
- MIC (Mtb MATI [12]): 0.5 µg/mL (≈ 2.45 µM)

Compound: COc1c(N2C[C@@H]3CCCN[C@@H]3C2)c(F)cc2c(=O)c(C(=O)O)cn(C3CC3)c12 [moxifloxacin]
- Susceptible/resistant Mtb SORO (Mtb SORO [7]): S
- MIC (Mtb SORO [7]): 0.25 µg/mL (≈ 0.623 µM)
- Susceptible/resistant Mtb TIAS (Mtb TIAS [9]): S
- MIC (Mtb TIAS [9]): 0.25 µg/mL (≈ 0.623 µM)
- Susceptible/resistant Mtb TURZ (Mtb TURZ [10]): S
- MIC (Mtb TURZ [10]): 0.25 µg/mL (≈ 0.623 µM)
- Susceptible/resistant Mtb YAGY (Mtb YAGY [11]): S
- MIC (Mtb YAGY [11]): 0.25 µg/mL (≈ 0.623 µM)

Compound: NC(=O)c1cnccn1 [pyrazinamide]
- Susceptible/resistant Mtb SORO (MGIT) (Mtb SORO [7]; [14]): S ^b)
- Susceptible/resistant Mtb IZAK (Mtb IZAK [8]): R
- MIC (Mtb IZAK [8]): > 16 µg/mL
- Susceptible/resistant Mtb TIAS (MGIT) (Mtb TIAS [9]; [14]): S ^b)
- Susceptible/resistant Mtb TURZ (MGIT) (Mtb TURZ [10]; [14]): S ^b)
- Susceptible/resistant Mtb YAGY (MGIT) (Mtb YAGY [11]; [14]): R ^b)
- Susceptible/resistant Mtb MATI (Mtb MATI [12]): R
- MIC (Mtb MATI [12]): > 128 µg/mL

Compound: [H]/N=C(/N)N[C@H]1[C@H](O)[C@@H](O)[C@H](O[C@@H]2O[C@@H](C)[C@](O)(C=O)[C@H]2O[C@@H]2O[C@@H](CO)[C@H](O)[C@@H](O)[C@@H]2NC)[C@@H](N/C(N)=N\[H])[C@@H]1O [streptomycin]
- Susceptible/resistant Mtb SORO (Mtb SORO [7]): R
- MIC (Mtb SORO [7]): 4 µg/mL (≈ 6.88 µM)
- Susceptible/resistant Mtb IZAK (Mtb IZAK [8]): R
- MIC (Mtb IZAK [8]): 4 µg/mL (≈ 6.88 µM)
- Susceptible/resistant Mtb TIAS (Mtb TIAS [9]): R
- MIC (Mtb TIAS [9]): 4 µg/mL (≈ 6.88 µM)
- Susceptible/resistant Mtb TURZ (Mtb TURZ [10]): R
- MIC (Mtb TURZ [10]): 16 µg/mL (≈ 27.5 µM)
- Susceptible/resistant Mtb YAGY (Mtb YAGY [11]): R
- MIC (Mtb YAGY [11]): > 16 µg/mL
- Susceptible/resistant Mtb MATI (Mtb MATI [12]): R
- MIC (Mtb MATI [12]): > 16 µg/mL
